This note sets out measurements from patent publication US11046716B2, “Beta-lactamase inhibitors” (priority 2015, dated 2021).

Where two headings read alike, the source gives them in different places.

Assay [1] relates to K. pneumoniae producing the Class D carbapenemase OXA-48. Description: Broth microdilution MIC assay with meropenem, K. pneumoniae OXA-48. The conditions noted are these: Fixed Mero (meropenem) 4 μg/mL; K. p. 11978 OXA-48. It is filed as cell-based. The text has this:
(§1) To determine the ability of test compounds to potentiate the inhibition of the growth of bacterial strains that produce beta-lactamase enzymes in the presence of a β-lactam antibiotic, classic cell based broth microdilution MIC assays were employed. Six bacteria strains producing beta-lactamase enzymes were used: E. coli expressing the Class A Extended Spectrum Beta-Lactamase (ESBL) CTX-M-15, E. cloacae expressing the Class C P99, K. pneumoniae expressing the Class A carbapenemase KPC-2, P. aeruginosa expressing the Class B carbapenemase VIM-2, K. pneumoniae expressing the class A carbapenemase KPC-2 and the class B carbapenemase VIM-4, and K. pneumoniae producing the Class D carbapenemase OXA-48. The assay was conducted in Cation Adjusted Mueller Hinton Broth (CAMHB, BD #212322, BD Diagnostic Systems, Sparks, Md.). Bacteria strains were grown for 3-5 hours in CAMBH broth. Test compounds (Examples 1-94) were added to a microtiter plate in 2-fold serial dilutions in CAMHB in a final concentration range of 16 μg/mL to 0.125 μg/ml. An overlay of CAMHB containing a Beta-lactam was added to the compounds at a final static concentration of 4 μg/ml. […] In addition to the titration of test compounds the MICs of a panel of control beta-lactams is also tested to ensure the strains are behaving consistently from test to test. Once the test compound and antibiotics are added the plates can be inoculated according to CLSI broth microdilution method. After inoculation the plates are incubated for 16-20 hours at 37° C. then the Minimal Inhibitory Concentration (MIC) of the test compound is determined visually.
(§2) Using the methodology described above, examples of the current invention were evaluated for their ability to inhibit the growth of β-lactamase-producing bacteria in the presence of a β-lactam antibiotic.
In general terms: In broth dilution the organism is exposed to a series of concentrations in liquid medium.

Assay [2] deals with T1, AmpC (Enterobacter cloacae, UniProt P05364).
T1 construct: made in house; host or cells: E. coli BL21(DE3)
T1 sequence (P05364 21-381): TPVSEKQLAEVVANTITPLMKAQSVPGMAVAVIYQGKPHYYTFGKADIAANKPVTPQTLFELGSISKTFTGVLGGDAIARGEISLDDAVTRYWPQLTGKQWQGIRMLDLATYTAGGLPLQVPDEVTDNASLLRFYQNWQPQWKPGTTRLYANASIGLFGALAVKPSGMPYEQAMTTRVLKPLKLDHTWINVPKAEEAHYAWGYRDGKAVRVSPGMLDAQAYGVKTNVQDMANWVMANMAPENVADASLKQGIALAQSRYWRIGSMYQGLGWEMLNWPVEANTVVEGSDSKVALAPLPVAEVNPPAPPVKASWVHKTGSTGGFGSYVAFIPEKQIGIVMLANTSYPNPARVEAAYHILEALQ
Description: β-lactamase enzyme inhibition assay, p99 AmpC (nitrocefin substrate). It is filed as biochemical. As to the method: (§3) For SHV-5, Kpc-2, p99AmpC and OXA-1 β-lactamases, E. coli BL21(DE3) bacterial cells carrying expression plasmids (expressed as native untagged proteins) for the individual β-lactamases were grown in 1 L of Superbroth (Teknova Inc. Hollister, Calif.) supplemented with 100 μg/ml kanamycin selection and 1×5052 (0.5% glycerol, 0.05% glucose and 0.2% α-lactose) at 35° C. for 18-20 hours. Cells were harvested by centrifugation (4,000×g, 4° C., 20 min), resuspended in 50 ml of 10 mM HEPES pH 7.5 ( 1/20 of the initial volume). The cells were lysed by sonication (5 pulses of 45 seconds) at 45 W on ice. The lysates were clarified by centrifugation at 10,000×g for 40 minutes at 4° C. Samples were diluted 5-fold in 50 mM sodium acetate pH 5.0, stored overnight at 4° C., after which they were centrifuged at 10,000×g for 30 minutes to clarify, and filtered through 0.45 μm filters. The samples were loaded onto a 5 ml Capto S sepharose cation exchange column (GE Healthcare) pre-equilibrated with 50 mM sodium acetate pH 5.0. The column was washed with 5 column volumes of 50 mM sodium acetate pH 5.0 to wash out unbound protein and a linear gradient of NaCl (0 to 500 mM) was used to elute the protein (over 16 CV) from the column. Fractions were assayed for β-lactamase activity using Centa (Calbiochem, Gibbstown, N.J.) or Nitrocefin (EMD Millipore chemicals, Darmstadt, Germany) as a reporter β-lactamase substrate for activity in the isolated fractions. Active fractions were pooled, concentrated and further purified by gel filtration chromatography on a Superdex 75 prep grade gel filtration column (GE Healthcare, Piscataway, N.J.) pre-equilibrated in 50 mM Hepes pH 7.5, 150 mM NaCl. Active fractions were pooled concentrated, quantitated by BCA protein determination (Thermo Scientific, Rockford, Ill.), dialyzed into PBS and frozen at −80° C. in 20% glycerol until use.
(§4) An equal volume of diluted enzyme stock was added, and the plates were incubated at 37° C. for 15 min. Nitrocefin was used as substrate for p99 AmpC, VIM-2 and OXA-1 and dispensed into each well at a final concentration of 100 μM. Absorbance at 486 nm was immediately monitored for 10 min using a Biotek Powerwave XS2 microplate spectrophotometer using the GEN5 software package (Biotek Instruments, Winooski Vt.). In an analogous fashion, imipenem was used as substrate for Kpc-2 and Cefotaxime was used for SHV-5, while changes in absorbance upon hydrolysis of the β-lactam ring were monitored at 300 nm and 260 nm respectively in UV-transparent 96-well microtiter assay plates. Maximum rates of hydrolysis were compared to those in control wells (without inhibitors), and percentages of enzyme inhibition were calculated for each concentration of inhibitor. The concentration of inhibitor needed to reduce the initial rate of hydrolysis of substrate by 50% (IC50) was calculated as the residual activity of β-lactamase at 486 nm using GraFit version 7 kinetics software package (Erithacus Software, Surrey, UK).
(§5) Using the methodology described above, examples of the current invention were evaluated for their ability to inhibit β-lactamase enzymes from all four Ambler classifications (A through D). […] NT=Not tested.

For assay [3], the target named is T2, SHV-5 (Klebsiella pneumoniae, UniProt P0A3M1).
T2 construct: made in house; host or cells: E. coli BL21(DE3)
T2 sequence (P0A3M1 22-286): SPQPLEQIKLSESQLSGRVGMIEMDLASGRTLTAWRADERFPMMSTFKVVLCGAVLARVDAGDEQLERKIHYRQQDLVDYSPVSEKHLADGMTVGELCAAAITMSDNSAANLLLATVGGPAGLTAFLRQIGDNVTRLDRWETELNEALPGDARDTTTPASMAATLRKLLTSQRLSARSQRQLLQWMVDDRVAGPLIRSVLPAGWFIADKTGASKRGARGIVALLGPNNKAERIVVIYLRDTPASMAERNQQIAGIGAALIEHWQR
In words: β-lactamase enzyme inhibition assay, SHV-5 (cefotaxime substrate). It is filed as biochemical. As to the method: as §3, §4, §5

Assay [4] deals with T3, KPC-2 (Klebsiella pneumoniae, UniProt Q9F663).
T3 construct: made in house; host or cells: E. coli BL21(DE3)
T3 sequence (Q9F663 25-293, looked up): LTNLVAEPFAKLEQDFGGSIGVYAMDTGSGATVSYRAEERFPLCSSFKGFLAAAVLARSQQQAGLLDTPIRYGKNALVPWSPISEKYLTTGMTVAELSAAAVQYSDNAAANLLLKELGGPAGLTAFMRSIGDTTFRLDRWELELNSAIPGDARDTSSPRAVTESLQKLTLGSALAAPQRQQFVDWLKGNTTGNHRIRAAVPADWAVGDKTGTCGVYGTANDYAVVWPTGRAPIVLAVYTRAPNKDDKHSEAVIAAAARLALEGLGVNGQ
Description: β-lactamase enzyme inhibition assay, KPC-2 (imipenem substrate). The assay is classed as biochemical. The method, then:
as §3, §4, §5

In assay [5] the target is T4, VIM-2 (Escherichia coli, UniProt Q5U7L7).
T4 construct: made in house; host or cells: E. coli BL21(DE3)
In words: β-lactamase enzyme inhibition assay, VIM-2 (nitrocefin substrate). It is filed as biochemical. As to the method:
For Vim-2 metallo β-lactamase, the procedure was identical with the following exceptions, first the protein was not pH adjusted to pH 5 with 50 mM sodium acetate, second, the chromatography step was changed to a 5 ml Q sepharose anion exchange column pre-equilibrated with 50 mM Hepes pH 7.5, and elution of the protein was achieved by a linear gradient of NaCl (0-600 mM). Finally, the VIM-2 purification required a second run (3rd step) on the Q sepharose anion exchange column to achieve acceptable purity (>90%).
as §4, §5

The subject of assay [6] is P. aeruginosa expressing the Class B carbapenemase VIM-2. Description: Broth microdilution MIC assay with meropenem, P. aeruginosa VIM-2. The assay is classed as cell-based. The settings on record: Fixed Mero (meropenem) 4 μg/mL; P. aerug. 2775 VIM-2.
Excerpt: as §1, §2

Assay [7] concerns K. pneumoniae expressing the Class A carbapenemase KPC-2. Description: Broth microdilution MIC assay with meropenem, K. pneumoniae KPC-2. It is filed as cell-based. The settings on record: Fixed Mero (meropenem) 4 μg/mL; K. p. 156319 KPC-3.
Excerpt: as §1, §2

Assay [8] addresses OXA-48 (UniProt Q6XEC0). Description: β-lactamase enzyme inhibition assay, Class D oxacillinase. It is filed as biochemical. The conditions noted are these: read-out: OXA-48.
In assay [9] the test system is K. pneumoniae expressing the class A carbapenemase KPC-2 and the class B carbapenemase VIM-4. Description: Broth microdilution MIC assay with meropenem, K. pneumoniae KPC-2 and VIM-4. The assay is classed as cell-based. The settings on record: Fixed Mero (meropenem) 4 μg/mL; K. p. A-1797 KPC-2 VIM-4.
Excerpt: as §1, §2

Assay [10] deals with E. coli expressing the Class A Extended Spectrum Beta-Lactamase (ESBL) CTX-M-15. Description: Broth microdilution MIC assay with ceftazidime, E. coli CTX-M-15. The assay is classed as cell-based. The settings on record: Fixed CAZ (ceftazidime) 4 μg/mL; E. coli ESBL4 CTX-M-15.
Excerpt: as §1, §2

Where [11] appears, read: Class A, imipenem substrate, 300 nm, read-out: KPC-2.
Setting [12] is: Class B, nitrocefin substrate, 486 nm, read-out: VIM-2.

In the case of `O=C(Cn1cc(CCO)nn1)N[C@H]1Cc2cccc(C(=O)O)c2OB1O` [Example 5, (R)-2-hydroxy-3-(2-(4-(2-hydroxyethyl)-11,2,3-triazol-1-yl)acetamido)-3,4-dihydro-2H-benzo[e][1,2]oxaborinine-8-carboxylic acid], the “MIC (μg/mL) of Exemplary Compounds in presence of fixed β-lactams: K. p. 11978 OXA-48” value (shortened to “MIC (μg/mL) … K. p. 11978 OXA-48”) in assay [1] is “B (B represents an MIC between 1 and 16 μg/mL inclusive)”. The IC50 is under 100 nM in [2]; under 100 nM in assay [3]; under 100 nM in assay [4] (setting [11]); 10 to 100 µM in assay [5] (setting [12]); 100 to 1000 nM in assay [8]. Also, the “MIC (μg/mL) of Exemplary Compounds in presence of fixed β-lactams: P. aerug. 2775 VIM-2” value in [6] is “B (B represents an MIC between 1 and 16 μg/mL inclusive)”. Moreover, the “MIC (μg/mL) of Exemplary Compounds in presence of fixed β-lactams: K. p. 156319 KPC-3” value (“MIC (μg/mL) … K. p. 156319 KPC-3” below) in assay [7] is “B (B represents an MIC between 1 and 16 μg/mL inclusive)”. In addition, the “MIC (μg/mL) of Exemplary Compounds in presence of fixed β-lactams: K. p. A-1797 KPC-2 VIM-4” value (from here on “MIC (μg/mL) … K. p. A-1797 KPC-2 VIM-4”) in [9] was “B (B represents an MIC between 1 and 16 μg/mL inclusive)”. For the same molecule, the “MIC (μg/mL) of Exemplary Compounds in presence of fixed β-lactams: E. coli ESBL4 CTX-M-15” value (“MIC (μg/mL) … E. coli ESBL4 CTX-M-15” for short) in [10] is recorded as “C (C represents an MIC of <1 μg/mL)”.

In the case of `NCCc1cn(CC(=O)N[C@H]2Cc3cccc(C(=O)O)c3OB2O)nn1` [Example 6, (R)-3-(2-(4-(2-aminoethyl)-1H-1,2,3-triazol-1-yl)acetamido)-2-hydroxy-3,4-dihydro-2H-benzo[e][1,2]oxaborinine-8-carboxylic acid], the “MIC (μg/mL) … K. p. 11978 OXA-48” value in [1] is “B (B represents an MIC between 1 and 16 μg/mL inclusive)”. Moreover, the IC50 is under 100 nM in assay [2]; 100 to 1000 nM in [3]; under 100 nM in [4] (setting [11]); 1 to 10 µM in [5] (setting [12]); 1000 to 10000 nM in assay [8]. In addition, in assay [6], the “MIC (μg/mL) of Exemplary Compounds in presence of fixed β-lactams: P. aerug. 2775 VIM-2” value is “C (C represents an MIC of <1 μg/mL)”. Also, the “MIC (μg/mL) … K. p. 156319 KPC-3” value in [7] is reported as “C (C represents an MIC of <1 μg/mL)”. For the same molecule, the “MIC (μg/mL) … K. p. A-1797 KPC-2 VIM-4” value in [9] is “B (B represents an MIC between 1 and 16 μg/mL inclusive)”. Besides, the “MIC (μg/mL) … E. coli ESBL4 CTX-M-15” value in assay [10] is “C (C represents an MIC of <1 μg/mL)”.

With `C[Si](C)(C)c1cn(CC(=O)N[C@H]2Cc3cccc(C(=O)O)c3OB2O)nn1` [Example 9, (R)-2-hydroxy-3-(2-(4-(trimethylsilyl)-1H-1,2,3-triazol-1-yl)acetamido)-3,4-dihydro-2H-benzo[e][1,2]oxaborinine-8-carboxylic acid], in assay [1], the “MIC (μg/mL) … K. p. 11978 OXA-48” value was “A (A represents an MIC>16 μg/mL)”. Further, the IC50 in assay [2] was under 100 nM; in [3] it was under 100 nM; in assay [4], under 100 nM; in assay [5], 1 to 10 µM; in assay [8], 100 to 1000 nM. In addition, in assay [7], the “MIC (μg/mL) … K. p. 156319 KPC-3” value is reported as “A (A represents an MIC>16 μg/mL)”. For the same molecule, the “MIC (μg/mL) … K. p. A-1797 KPC-2 VIM-4” value in assay [9] was “A (A represents an MIC>16 μg/mL)”. For the same molecule, the “MIC (μg/mL) … E. coli ESBL4 CTX-M-15” value in [10] was “B (B represents an MIC between 1 and 16 μg/mL inclusive)”.
